From ChEMBL document CHEMBL4813973, “Discovery of novel N-benzylbenzamide derivatives as tubulin polymerization inhibitors with potent antitumor activities” (Eur J Med Chem, 2021)
Values belong to the compound of their own block, whether it stands above or below them.

Columns and labels:
A-431 = assay: Antiproliferative activity against human A-431 cells assessed as reduction in cell viability incubated for 72 hrs by MTT assay; assay type: functional, cell-based; conditions: A-431, 72 h
MDA-MB-231 = assay: Antiproliferative activity against human MDA-MB-231 cells assessed as reduction in cell viability incubated for 72 hrs by MTT assay; assay type: functional, cell-based; conditions: MDA-MB-231, 72 h
K562 [1] = assay: cells; conditions: Homo sapiens, K562, 72 h
Description: (§1) Antiproliferative activity against human K562 cells assessed as reduction in cell viability incubated for 72 hrs by MTT assay

HepG2 = assay: cells; conditions: Homo sapiens, HepG2, 72 h
HCT-8 [2] = assay: Antiproliferative activity against human HCT-8 cells assessed as reduction in cell viability incubated for 72 hrs by MTT assay; assay type: functional, cell-based
L02 = assay: Cytotoxicity against human L02 cells assessed as reduction in cell viability incubated for 72 hrs by MTT assay; assay type: cell-based; conditions: L02, 72 h
H22 [3] = assay: Antiproliferative activity against mouse H22 cells assessed as reduction in cell viability incubated for 72 hrs by MTT assay; assay type: functional, cell-based; conditions: H22, 72 h
H22 [4] = assay: Antitumor activity against […] xenografted in ICR mouse assessed as reduction of tumor weight at 20 mg/kg/day, iv for 21 days; assay type: functional; conditions: 504 h, time 21 day
[5] = Resistant index, ratio of IC50 for ADR-resistant human Bel-7402 cells to IC50 for human Bel-7402 cells; assay type: functional
K562/VCR = assay: Antiproliferative activity against VCR resistant human K562/VCR cells assessed as reduction in cell viability incubated for 72 hrs by MTT assay; assay type: functional, cell-based
K562 [6] = system: K562
Description: as §1

HCT-8 [7] = assay: Antiproliferative activity against taxol-resistant human HCT-8 cells assessed as reduction in cell viability incubated for 72 hrs by MTT assay; assay type: functional, cell-based
Bel-7402 [8] = assay: Antiproliferative activity against human Bel-7402 cells assessed as reduction in cell viability incubated for 72 hrs by MTT assay; assay type: functional, cell-based; conditions: Homo sapiens, Bel-7402, 72 h; read-out: IC50
Sus scrofa [9] = organism: Sus scrofa; assay: Inhibition of [3H]colchicine binding to biotinylated pig brain tubulin at 5 uM incubated for 2 hrs in presence of GTP by competitive scintillation proximity assay; assay type: tissue-based
[10] = Resistant index, ratio of IC50 for taxol-resistant human HCT-8 cells to IC50 for human HCT-8 cells; assay type: functional
[11] = Resistant index, ratio of IC50 for VCR resistant human K562 cells to IC50 for human K562 cells; assay type: functional
Bel-7402 [12] = assay: Antiproliferative activity against ADR-resistant human Bel-7402 cells assessed as reduction in cell viability incubated for 72 hrs by MTT assay; assay type: functional, cell-based; conditions: Homo sapiens, Bel-7402, 72 h; read-out: IC50
[13] = Metabolic stability in rat plasma assessed as parent compound remaining at 100 nM measured after 3 hrs by HPLC analysis; assay type: ADME, cell-free; conditions: read-out: Stabilty
Sus scrofa [14] = organism: Sus scrofa; assay: Inhibition of [3H]colchicine binding to biotinylated pig brain tubulin at 1 uM incubated for 2 hrs in presence of GTP by competitive scintillation proximity assay; assay type: tissue-based
[15] = Metabolic stability in rat plasma assessed as parent compound remaining at 100 nM measured after 60 mins by HPLC analysis; assay type: ADME, cell-free; conditions: 1 h, 0.1 µM
[16] = Inhibition of pig brain tubulin polymerisation incubated for 30 mins and measured every 2 mins for 60 mins by spectrophotometric method; assay type: tissue-based, Sus scrofa
[17] = Homo sapiens, HCT-8, 72 h, read-out: IC50

IC50 (A-431): 962 nM
Structure (SMILES): COc1ccc(CNC(=O)c2cc(NC(=O)c3ccncc3)ccc2N2CCOCC2)cc1O

IC50 (A-431): 121 nM
Structure (SMILES): COc1ccc(CNC(=O)c2cc(O)ccc2N2CCOCC2)cc1O

IC50 (A-431): 118 nM
Structure (SMILES): COc1ccc(CNC(=O)c2ccncc2N2CCOCC2)cc1O

IC50 (A-431): 220 nM
Structure (SMILES): COc1ccc(CNC(=O)c2cc(NC(C)=O)ccc2N2CCOCC2)cc1O

IC50 (A-431): 478 nM
Structure (SMILES): COc1ccc(CNC(=O)c2cc(NC(=O)c3ccco3)ccc2N2CCOCC2)cc1O

IC50 (MDA-MB-231): 29 nM | IC50 (K562 [1]): 61 nM | IC50 (HepG2): 29 nM | IC50 (HCT-8 [2]; [17]): 27 nM | IC50 (A-431): 28 nM
Structure (SMILES): COc1ccc(N2CCOCC2)c(C(=O)NCc2ccc(OC)c(O)c2)c1
IC50 (L02): 52 nM | IC50 (H22 [3]): 32 nM

IC50 (A-431): 315 nM
Structure (SMILES): COc1ccc(CNC(=O)c2cc(NCc3ccco3)ccc2N2CCOCC2)cc1O

IC50 (A-431): 1080 nM
Structure (SMILES): COc1ccc(CNC(=O)c2cc(NCc3ccncc3)ccc2N2CCOCC2)cc1O

IC50 (A-431): 154 nM
Structure (SMILES): COc1ccc(-c2ccc(N3CCOCC3)c(C(=O)NCc3ccc(OC)c(O)c3)c2)cc1

Continued, compound first:

Structure (SMILES): COCCNc1ccc([N+](=O)[O-])cc1C(=O)NCc1ccc(OC)c(O)c1
IC50 (A-431): > 1000 nM

Structure (SMILES): O=C(NCc1ccc(Cl)cc1)c1cc([N+](=O)[O-])ccc1N1CCOCC1
IC50 (A-431): > 1000 nM

Structure (SMILES): COc1ccc(CNC(=O)c2cc([N+](=O)[O-])ccc2N2CCSCC2)cc1O
IC50 (MDA-MB-231): 62 nM | IC50 (K562 [1]): 49 nM | IC50 (HepG2): 58 nM | IC50 (HCT-8 [2]; [17]): 60 nM | IC50 (L02): 113 nM | IC50 (H22 [3]): 55 nM | IC50 (A-431): 60 nM

Structure (SMILES): O=C(OCc1ccc2[nH]ccc2c1)c1cc([N+](=O)[O-])ccc1N1CCOCC1
IC50 (A-431): > 1000 nM

Structure (SMILES): COc1ccc(CNC(=O)c2cc([N+](=O)[O-])ccc2N2CCOCC2)cc1F
IC50 (A-431): 93 nM

Structure (SMILES): COc1ccc(CNC(=O)c2cc([N+](=O)[O-])ccc2N2CCCC2)cc1O
IC50 (A-431): 372 nM

Structure (SMILES): COc1ccc(/C=C\c2cc(OC)c(OC)c(OC)c2)cc1OP(=O)(O)O [FOSBRETABULIN]
inhibition in vivo at 20 mg/kg/day (H22 [4]): 62.7%

Structure (SMILES): COc1cccc2c1C(=O)c1c(O)c3c(c(O)c1C2=O)C[C@@](O)(C(=O)CO)C[C@@H]3O[C@H]1C[C@H](N)[C@H](O)[C@H](C)O1.Cl [DOXORUBICIN HYDROCHLORIDE]
Ratio IC50 [5]: 6.3 | IC50 (K562/VCR; k562/vcr): Not Active | IC50 (HCT-8 [2]; hct-8): Not Active | IC50 (K562 [6]): Not Active | IC50 (HCT-8 [7]; hct-8): Not Active

Structure (SMILES): COc1ccc(CNC(=O)c2cc([N+](=O)[O-])ccc2N2CCOCC2)cn1
IC50 (A-431): > 1000 nM

Structure (SMILES): COc1ccc(CNC(=O)c2cc(C(F)(F)F)ccc2N2CCCCC2)cc1O
IC50 (A-431): 97 nM

Structure (SMILES): COc1ccc(CNC(=O)c2cc([N+](=O)[O-])ccc2N2CCOCC2)cc1
IC50 (A-431): 127 nM

Structure (SMILES): COc1ccc(CNC(=O)c2cc([N+](=O)[O-])ccc2N(C)C)cc1O
IC50 (A-431): > 1000 nM

Structure (SMILES): COc1ccc(CNC(=O)c2cc([N+](=O)[O-])ccc2N2CCCCC2)cc1O
IC50 (MDA-MB-231): 29 nM | IC50 (K562 [1]): 19 nM | IC50 (HepG2): 12 nM | IC50 (HCT-8 [2]; [17]): 11 nM | IC50 (L02): 120 nM | IC50 (H22 [3]): 25 nM | IC50 (A-431): 12 nM

Structure (SMILES): CSc1ccc(COC(=O)c2cc([N+](=O)[O-])ccc2N2CCOCC2)cc1
Ratio IC50 [5]: 4.8 | IC50 (Bel-7402 [8]): 56 nM | inhibition (Sus scrofa [9]): 85.7% | IC50 (MDA-MB-231): 31 nM | IC50 (K562 [1]): 10 nM | IC50 (HepG2): 33 nM | Ratio IC50 [10]: 8.2 | Ratio IC50 [11]: 29.7 | IC50 (K562/VCR; Homo sapiens, K562/VCR, 72 h, read-out: IC50): 297 nM | IC50 (HCT-8 [2]; [17]): 27 nM | IC50 (Bel-7402 [12]): 268 nM | remaining at 3 h, 0.1 µM [13]: 72.6% | IC50 (L02): 44 nM | inhibition (Sus scrofa [14]): 58% | IC50 (H22 [3]): 25 nM | Stabilty [15]: Stable | IC50 (A-431): 10 nM | IC50 [16]: 2990 nM | IC50 (HCT-8 [7]; [17]): 221 nM | inhibition in vivo at 20 mg/kg/day (H22 [4]): 66.7%

Structure (SMILES): CN(C)c1ccc(CNC(=O)c2cc([N+](=O)[O-])ccc2N2CCOCC2)cc1
IC50 (A-431): 145 nM

Structure (SMILES): O=C(OCc1cccc2[nH]ccc12)c1cc([N+](=O)[O-])ccc1N1CCOCC1
IC50 (A-431): > 1000 nM

Structure (SMILES): CCN(CC)c1ccc([N+](=O)[O-])cc1C(=O)NCc1ccc(OC)c(O)c1
IC50 (A-431): 51 nM

Structure (SMILES): COc1ccc(CNC(=O)c2ccccc2N2CCCCC2)cc1O
IC50 (MDA-MB-231): 29 nM | IC50 (K562 [1]): 30 nM | IC50 (HepG2): 31 nM | IC50 (HCT-8 [2]; [17]): 29 nM | IC50 (L02): 97 nM | IC50 (H22 [3]): 29 nM | IC50 (A-431): 30 nM

Structure (SMILES): COc1ccc(CNC(=O)c2ccc([N+](=O)[O-])cc2N2CCOCC2)cc1O
IC50 (A-431): 224 nM
